According to PMC10732257 (Oncotarget, 2023):

How the values were obtained:
[1] = Body weight change in MV-4-11 xenograft mice; type: in vivo, female BALB/c nude mice; details: GFH009 maleate QW or BIW; enitociclib 10.0 mg/kg QW; i.v.
Experimental: Figure 7 Effect of GFH009 on body weight change in MV-4-11 xenografts. Body weight change of MV-4-11 xenograft (Figure 6) are expressed as mean ± SEM. ^* […], ^** P < 0.01, ^**** P < 0.0001, two-way ANOVA with Dunnett’s multiple comparisons test analysis compared to the vehicle-treated (control) group.
(§1) Animals dosed BIW were given treatments on 2 consecutive days. Weights were recorded for each mouse every day and tumor volumes assessed 3 times a week. Total treatment administration occurred across 3 consecutive weeks.
Relative change in body weight (RCBW) was determined as RCBW (%) = (Bwi – BW0)/BW0 × 100, where Bwi is body weight of a given mouse on a given day, and BW0 is initial body weight on the day they were assigned to a treatment group.

MV-4-11 xenograft = assay: Anti-tumor efficacy in subcutaneous MV-4-11 xenograft model; type: in vivo, female BALB/c nude mice; details: i.v.; GFH009 maleate 2.5, 5.0, 10.0 mg/kg QW or BIW; enitociclib 10.0 mg/kg QW; 3 weeks
Experimental: Figure 6 Anti-tumor efficacy of GFH009 in MV-4-11 xenograft model. MV-4-11 xenograft in female BALB/c nude mice were treated with GFH009 or enitociclib at the indicated doses (n = 8 mice per group). Results are expressed as mean ± SEM. ^* P < 0.05, ^**** P < 0.0001, two-way ANOVA with Dunnett’s multiple comparisons test analysis compared to Vehicle control group.
In vivo studies of tumor suppression were conducted in female BALB/c nude mice (Beijing Vital River Laboratory Animal Technology Co, Ltd., Changping, Beijing, China) bearing MV-4-11 xenografts (ATCC, Rockville, MD, USA). Each mouse was inoculated subcutaneously into the right dorsal-region with 5.0 × 10^6 cultured MV-4-11 cells in a total volume of 0.2 ml solution and allowed to develop xenograft tumors. Once tumor size had reached […], mice were divided into groups to receive 1 of 8 different treatment preparations dosed intravenously via the tail vein (Table 2). […] Enitociclib was administered as a 1.0 mg/mL solution in ultrapure water with 5% DMSO. Vehicle control was 50 mM PBS with no dissolved treatment drug.
as §1
Subcutaneous tumor volume (TV) was calculated as TV = (L × W^2)/2, where L was the length and W was the width of the tumor [11]. […] TGI was calculated as TGI (%) = (1 – avTi-0/ avCi-0)) × 100, where avTi-0 is the mean TV of the treatment group on a given day minus the mean TV of this treatment group on the day of group assignment, and avCi-0 is the mean TV of the vehicle control group on a given day minus the mean TV of the vehicle control group on the day of group assignment.
Tumor volume data was subjected to a base-10 logarithmic transformation and subsequent comparisons of TV across groups was made using two-way ANOVA (Dunnett’s multiple comparisons test). All plotting and statistical analyses were conducted using GraphPad Prism 6.00 (GraphPad Software).

## COc1cc(F)ccc1-c1cc(Nc2cc(CS(C)(=N)=O)ccn2)ncc1F (centres unmarked) [enitociclib, reference compound]
[1]
  Body weight of the mice during the administration period: decreased dramatically
MV-4-11 xenograft
  Tumor growth (total volume) compared to the vehicle control: inhibited tumor growth
